Results on 5 compounds are retold here after BindingDB's records for doi:10.1021/jm100886h (University of Copenhagen, 2010).

The assay is described as follows: Antagonist activity at GluR1 expressed in Xenopus laevis oocytes assessed as inhibition of glutamate-induced current at -60mV holding potential by two-electrode voltage-clamp electrophysiology. (In general: Two-electrode voltage clamp holds a large cell at a set potential and records current.)
In the case of `NCCCNCCCCNCCCNC(=O)[C@H](CC1CCCCC1)NC(=O)Cc1cccc2ccccc12` [(S)-N-(3-(4-(3-aminopropylamino)butylamino)propyl)-3-cyclohexyl-2-(2-(naphthalen-1-yl)acetamido)propanamide], the IC50 (commonly the concentration that gives 50% inhibition) is 41 nM.
The same measure for `NCCCNCCCCNCCCNC(=O)[C@H](CC1CCCCC1)NC(=O)C1CCCCC1` [(S)-N-(1-(3-(4-(3-aminopropylamino)butylamino)propylamino)-3-cyclohexyl-1-oxopropan-2-yl)cyclohexanecarboxamide]: 21 nM.
Then `NCCCNCCCCNCCCNC(=O)[C@H](CC1CCCCC1)NC(=O)c1ccc(-c2ccccc2)cc1` [(S)-N-(1-(3-(4-(3-aminopropylamino)butylamino)propylamino)-3-cyclohexyl-1-oxopropan-2-yl)biphenyl-4-carboxamide], with 87 nM; and `CCCC(=O)N[C@@H](CC1CCCCC1)C(=O)NCCCNCCCCNCCCN` [(S)-N-(1-(3-(4-(3-aminopropylamino)butylamino)propylamino)-3-cyclohexyl-1-oxopropan-2-yl)butyramide], with 32 nM; and `NCCCNCCCCNCCCNC(=O)[C@H](CC1CCCCC1)NC(=O)CC12CC3CC(CC(C3)C1)C2` [(S)-2-(2-Adamantan-1-yl-acetylamino)-N-{3-[4-(3-amino-propylamino)-butylamino]-propyl}-3-cyclohexyl-propionamide], with 105 nM.
